In patent US7138361B2, “Herbicidal heterocycles” (E. I. du Pont de Nemours and Company, priority 2000, dated 2006):

Experiments:
Assay type in all cases: in vivo
[1] = tested on: morning glory (Ipomoea spp.); test: Test A postemergence, sprayed to runoff; parameters: scale not given here; conditions: Morningglory, approx. eleven days
Protocol: (§1) Seeds of barnyardgrass (Echinochloa crus-galli), crabgrass (Digitaria spp.), giant foxtail (Setaria viridis), morning glory (Ipomoea spp.), redroot pigweed (Amaranthus retroflexus) and velvetleaf (Abutilon theophrasti) were planted into a sandy loam soil and treated preemergence by soil drench with test chemicals formulated in a non-phytotoxic solvent mixture which included a surfactant. At the same time, these crop and weed species were also treated postemergence sprayed to runoff with test chemicals formulated in the same manner. Plants ranged in height from two to eighteen cm and were in the one- to two-leaf stage for the postemergence treatment. Treated plants and untreated controls were maintained in a greenhouse for approximately eleven days, after which time all treated plants were compared to untreated controls and visually evaluated for injury. Plant response ratings, summarized in Table A, are based on a 0 to 10 scale where 0 is no effect and 10 is complete control. A dash (-) response means no test results.

[2] = tested on: velvetleaf (Abutilon theophrasti); test: Test A postemergence, sprayed to runoff; parameters: scale not given here; conditions: approx. eleven days
Protocol: as §1

[3] = tested on: barnyardgrass (Echinochloa crus-galli); test: Test A postemergence, sprayed to runoff; conditions: approx. eleven days
Protocol: as §1

[4] = tested on: crabgrass (Digitaria spp.); test: Test A postemergence, sprayed to runoff; conditions: approx. eleven days
Protocol: as §1

[5] = tested on: giant foxtail (Setaria viridis); test: Test A postemergence, sprayed to runoff; conditions: approx. eleven days
Protocol: as §1

[6] = tested on: redroot pigweed (Amaranthus retroflexus); test: Test A postemergence, sprayed to runoff; conditions: approx. eleven days
Protocol: as §1

[7] = tested on: barnyardgrass (Echinochloa crus-galli); test: Test A preemergence, soil drench; conditions: approx. eleven days
Protocol: as §1

[8] = tested on: crabgrass (Digitaria spp.); test: Test A preemergence, soil drench; conditions: approx. eleven days
Protocol: as §1

[9] = tested on: giant foxtail (Setaria viridis); test: Test A preemergence, soil drench; conditions: approx. eleven days
Protocol: as §1

[10] = tested on: morning glory (Ipomoea spp.); test: Test A preemergence, soil drench; conditions: Morningglory, approx. eleven days
Protocol: as §1

[11] = tested on: redroot pigweed (Amaranthus retroflexus); test: Test A preemergence, soil drench; conditions: approx. eleven days
Protocol: as §1

[12] = tested on: velvetleaf (Abutilon theophrasti); test: Test A preemergence, soil drench; conditions: approx. eleven days
Protocol: as §1

[13] = tested on: barnyardgrass (Echinochloa crus-galli); test: Test B flooded paddy test; conditions: Rate 1000 g/ha, scale of 0 to 100 where 0 is no effect and 100 is complete control, visually evaluated after 13 to 15 days
Outline: (§2)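 Greenhouse-held for 13 to 15 days after treatment at the 2-leaf stage, paddy-grown plants were scored visually against controls on a 0-to-100 control scale; a dash marks no test result.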

[14] = tested on: duck salad (Heteranthera limosa); test: Test B flooded paddy test; conditions: Rate 1000 g/ha, scale of 0 to 100 where 0 is no effect and 100 is complete control, visually evaluated after 13 to 15 days
Outline: as §2

rice (Oryza saliva) = test: Test B flooded paddy test; conditions: Rate 1000 g/ha, scale of 0 to 100 where 0 is no effect and 100 is complete control, visually evaluated after 13 to 15 days
Outline: as §2

[15] = tested on: smallflower flatsedge (Cyperus difformis); test: Test B flooded paddy test; conditions: Rate 1000 g/ha, scale of 0 to 100 where 0 is no effect and 100 is complete control, visually evaluated after 13 to 15 days
Outline: as §2

[16] = tested on: duck salad (Heteranthera limosa); test: Test C flooded paddy test; conditions: for Ducksalad plant response rating: scale 0 to 100, 0 no effect, 100 complete control
Outline: (§3)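 Greenhouse-maintained for 12 to 14 days after treatment, the paddy plants (2-leaf stage at application) were scored visually against controls. A score of 0 denotes no effect and a score of 100 denotes complete control.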

[17] = tested on: smallflower flatsedge (Cyperus difformis); test: Test C flooded paddy test; conditions: for Flatsedge plant response rating: Flooded Paddy, scale 0 to 100, 0 no effect, 100 complete control; for Plant response rating, Flatsedge: flooded paddy test, scale 0 to 100 (0 no effect, 100 complete control)
Outline: as §3

[18] = flooded paddy test, Rate 62 g/ha, scale 0 to 100 (0 no effect, 100 complete control)
[19] = flooded paddy test, Rate 125 g/ha, scale 0 to 100 (0 no effect, 100 complete control)

SMILES	Plant response rating (visual injury vs untreated controls) ([1]; Rate 500 g/ha)	Plant response rating (visual injury vs untreated controls) ([1]; Rate 2000 g/ha)	Plant response rating (visual injury vs untreated controls) ([2]; Rate 500 g/ha)	Plant response rating (visual injury vs untreated controls) ([2]; Rate 2000 g/ha)	Plant response rating (visual injury vs untreated controls) ([3]; Rate 500 g/ha)	Plant response rating (visual injury vs untreated controls) ([3]; Rate 2000 g/ha)	Plant response rating (visual injury vs untreated controls) ([4]; Rate 500 g/ha)	Plant response rating (visual injury vs untreated controls) ([4]; Rate 2000 g/ha)	Plant response rating (visual injury vs untreated controls) ([5]; Rate 500 g/ha)	Plant response rating (visual injury vs untreated controls) ([5]; Rate 2000 g/ha)	Plant response rating (visual injury vs untreated controls) ([6]; Rate 500 g/ha)	Plant response rating (visual injury vs untreated controls) ([6]; Rate 2000 g/ha)	Plant response rating (visual injury vs untreated controls) ([7]; Rate 500 g/ha)	Plant response rating (visual injury vs untreated controls) ([7]; Rate 2000 g/ha)	Plant response rating (visual injury vs untreated controls) ([8]; Rate 500 g/ha)	Plant response rating (visual injury vs untreated controls) ([8]; Rate 2000 g/ha)	Plant response rating (visual injury vs untreated controls) ([9]; Rate 500 g/ha)	Plant response rating (visual injury vs untreated controls) ([9]; Rate 2000 g/ha)	Plant response rating (visual injury vs untreated controls) ([10]; Rate 500 g/ha)	Plant response rating (visual injury vs untreated controls) ([10]; Rate 2000 g/ha)	further results
CC1CCc2cn(C3CCN(c4cccc(C(F)(F)F)c4)C3=O)nc21 (stereo not drawn) [Compound 11]	10	10	0	0	20	40	0	10	0	50	70	90	100	100	100	100	100	100	0	0	Plant response rating (visual injury vs untreated controls) ([11]; Rate 500 g/ha): 100; Plant response rating (visual injury vs untreated controls) ([11]; Rate 2000 g/ha): 100; Plant response rating (visual injury vs untreated controls) ([12]; Rate 500 g/ha): 0; Plant response rating (visual injury vs untreated controls) ([12]; Rate 2000 g/ha): 20; Plant response rating, Barnyardgrass [13]: 60; Plant response rating, Ducksalad [14]: 90; Plant response rating, Rice (rice (Oryza saliva)): 40; Plant response rating, Flatsedge [15]: 100; Plant response rating, Ducksalad ([16]; Flooded Paddy, Rate 500 g/ha, scale 0 to 100): 30; Ducksalad plant response rating ([16]; Flooded Paddy, Rate 250 g/ha): 20; Plant response rating, Ducksalad [16, 18]: 0; Plant response rating, Ducksalad [16, 19]: 20; Flatsedge plant response rating ([17]; Rate 250 g/ha): 90; Flatsedge plant response rating ([17]; Rate 500 g/ha): 100; Plant response rating, Flatsedge ([17]; Rate 62 g/ha): 90; Plant response rating, Flatsedge ([17]; Rate 125 g/ha): 90
O=C1C(n2ccc(C3CC3)n2)SCN1c1cccc(C(F)(F)F)c1 (stereo not drawn) [Compound 26]	20	50	10	10	90	90	30	20	50	100	40	80	100	100	100	100	100	100	0	30	Plant response rating (visual injury vs untreated controls) ([11]; Rate 500 g/ha): 100; Plant response rating (visual injury vs untreated controls) ([11]; Rate 2000 g/ha): 100; Plant response rating (visual injury vs untreated controls) ([12]; Rate 500 g/ha): 50; Plant response rating (visual injury vs untreated controls) ([12]; Rate 2000 g/ha): 40; Plant response rating, Barnyardgrass [13]: 0; Plant response rating, Ducksalad [14]: 0; Plant response rating, Rice (rice (Oryza saliva)): 0; Plant response rating, Flatsedge [15]: 0; Ducksalad plant response rating ([16]; Flooded Paddy, Rate 250 g/ha): 100; Ducksalad plant response rating ([16]; Flooded Paddy, Rate 500 g/ha): 70; Plant response rating, Ducksalad [16, 18]: 0; Plant response rating, Ducksalad [16, 19]: 80; Flatsedge plant response rating ([17]; Rate 250 g/ha): 95; Flatsedge plant response rating ([17]; Rate 500 g/ha): 95; Plant response rating, Flatsedge ([17]; Rate 62 g/ha): 90; Plant response rating, Flatsedge ([17]; Rate 125 g/ha): 90
